# pEC50: −log10 of the molar value.
# Experiments:
# [1] = target: T1, ABL1(H396P)-phosphorylated (Homo sapiens, UniProt P00519, H396P); assay: KINOMEscan; type: binding; conditions: read-out: % Ctrl
# T1 construct: purchased DiscoveRx KINOMEscan
# KIT(V559D) = target: T2, KIT(V559D) (Homo sapiens, UniProt P10721, V559D); assay: KINOMEscan; type: binding; conditions: read-out: % Ctrl
# T2 construct: purchased DiscoveRx KINOMEscan
# FLT3(D835H) = target: T3, FLT3(D835H) (Homo sapiens, UniProt P36888, D835H); assay: KINOMEscan; type: binding; conditions: read-out: % Ctrl
# T3 construct: purchased DiscoveRx KINOMEscan
# P-gp = target: T4, P-gp (Homo sapiens, UniProt P08183); assay: P-gp ATPase activity assay; type: biochemical; conditions: compared with DMSO; TBPT 2 μM, 1 h; human cell membrane P-gp fractions
# T4 construct: purchased Promega Biotech, Madison, WI, USA
# Procedure: The P-gp ATPase activity was determined in human cell membrane P-gp fractions using a luminescence-based assay.
# The P-gp ATPase activity assay was conducted using the P-gp Glo Assay System following the manufacturer's protocol (Promega Biotech, Madison, WI, USA). […] Then, the luminescence was measured using a POLARstar Galaxy luminometer (BMG Labtech, Offenburg, Germany). The change in luminescence was calculated by comparing the Na3VO4-treated samples with the other compound-treated samples. The change in luminescence change is proportional to the ATP consumption in the samples, which correlated positively with the P-gp ATPase activity.
# FGFR3(G697C) = target: T5, FGFR3(G697C) (Homo sapiens, UniProt P22607, G697C); assay: KINOMEscan; type: binding; conditions: read-out: % Ctrl
# T5 construct: purchased DiscoveRx KINOMEscan
# NHFB = assay: Cell viability assay (sulforhodamine B); type: cell-based; conditions: Fibroblast; NHFB normal human fibroblasts, 72 h
# Procedure: All biological reagents and solvents were obtained from commercial suppliers and used as recommended. The human NSCLC cell line H460 and P-gp-overexpressing drug-resistant cell line H460TaxR were cultured in RPMI-1640 medium supplemented with 10% fetal bovine serum, 100 units/ml penicillin and […] streptomycin. The NHFB cell line NHFB was cultured in DMEM with the same supplements. All cells were maintained in a 37 °C incubator with 95% humidity and 5% CO2.
# The cell viability was determined using the sulforhodamine B assay.[64] In brief, cells (4000 cells in 100 μl medium) were seeded in 96-well culture plates and incubated for 24 h. The cells were treated with the compounds or with an equal volume (0.1%) of DMSO for 72 h. The cell viability was calculated using the following formula: cell viability=Atreatment/Acontrol. The EC50 values were determined using the Sigma Plot 10.0 software package (Systat Software Inc., San Jose, CA, USA).
# NHFB cells = assay: Cell cycle and apoptosis analysis; type: cell-based, human; conditions: 2 μM
# PFTAIRE2 = target: T6, PFTAIRE2 (Homo sapiens, UniProt Q96Q40); assay: KINOMEscan; type: binding; conditions: read-out: % Ctrl
# T6 construct: purchased DiscoveRx KINOMEscan
# Procedure: The binding assay for 442 non-mutant kinases was performed using KINOMEscan (DiscoveRx Corporation, Fremont, CA, USA) as reported previously.[58], [59] TBPT was screened at concentrations of 5 and 10 μM to identify the affected kinases. KINOMEscan is based on a competition reaction that quantitatively measures the ability of a test compound to compete with an active site-directed ligand for binding to the kinase active site. […] After the assay plates were incubated with shaking for 1 h, the liganded beads were washed with washing buffer (1 × PBS and 0.05% Tween 20). Then, the beads were re-suspended in elution buffer (1 × PBS, 0.05% Tween 20, and 0.5 μM ligand) and incubated with shaking for 30 min. The kinase concentration in the eluates was measured via qPCR. The results are represented as ‘%Ctrl', which was calculated using the following formula: (test compound signal–positive control signal)/(DMSO signal–positive control signal) × 100%. A lower % Ctrl indicates stronger binding to the kinase active site.
# RET(M918T) = target: T7, RET(M918T) (Homo sapiens, UniProt P07949, M918T); assay: KINOMEscan; type: binding; conditions: read-out: % Ctrl
# T7 construct: purchased DiscoveRx KINOMEscan
# EGFR(G719C) = target: T8, EGFR(G719C) (Homo sapiens, UniProt P00533, G719C); assay: KINOMEscan; type: binding; conditions: read-out: % Ctrl
# T8 construct: purchased DiscoveRx KINOMEscan
# [2] = parallel artificial membrane permeability assay (PAMPA); type: in vitro ADME
# Excerpt: As in vivo investigations are generally time consuming and expensive, it is advantageous to eliminate those compounds that are not suitable for animal experiments. One of the necessary steps is to screen the initial hits using assays testing their possible behaviors in vivo. To evaluate the drug-like properties of TBPT, a panel of in vitro assays was preformed (Table 1). The parallel artificial membrane permeability assay (PAMPA) was used to evaluate the cell permeability of the compounds. Compounds with a Pe >[…] are classified as highly permeable. […] The Caco-2 assay was used to predict the oral absorption values of the compounds in vivo. Compounds with a Caco-2 efflux ratio >2 may be subject to active efflux and should not be developed further. […] The half-life (T1/2) in human liver microsomes is used to predict the metabolism properties of compounds in vivo. […] A very long T1/2 (>24 h) increases the risk of cumulative toxicity and is not desirable. […] T1/2 in plasma indicates the stability of the drug in human blood; the high T1/2 values of these compounds indicated better stability in vivo. Plasma protein binding influences the distribution of drugs into body tissues, and compounds with high plasma protein binding (>99%) are limited in terms of the amount of free compound that are available to act on the targeted tissue. […]
# H460 = assay: Immunofluorescence staining for microtubule structure; type: cell-based, human; conditions: H460, 2 μM, 24 h
# Procedure: (§1) The cells were washed in PBS and then fixed in paraformaldehyde (4% v/v) for 10 min. After the cells were washed three times in PBS, they were blocked with 5% (w/v) BSA for 30 min at RT. Then, α-tubulin antibody (CST, Beverly, MA, USA) was incubated with cells in a humid chamber overnight at 4 °C. After the cells were washed three times in PBS, they were incubated with goat anti-rabbit IgG-FITC (Jackson ImmunoResearch, West Grove, PA, USA) for 1 h at 37 °C. Then, the cells were mounted with mounting medium containing DAPI (Vector Lab, Peterborough, UK) after they were washed three times in PBS. Finally, the cells were observed and imaged using a fluorescence microscope (Olympus IX71, Tokyo, Japan).
# H460TaxR = assay: as above; type: cell-based, human; conditions: 2 μM, 24 h
# Procedure: as §1
# [3] = target: T9, ABL1(F317I)-phosphorylated (Homo sapiens, UniProt P00519, F317I); assay: KINOMEscan; type: binding; conditions: read-out: % Ctrl
# T9 construct: purchased DiscoveRx KINOMEscan
# LRRK2(G2019S) = target: T10, LRRK2(G2019S) (Homo sapiens, UniProt Q5S007, G2019S); assay: KINOMEscan; type: binding; conditions: read-out: % Ctrl
# T10 construct: purchased DiscoveRx KINOMEscan
# T10 sequence (Q5S007 whole entry G2019S): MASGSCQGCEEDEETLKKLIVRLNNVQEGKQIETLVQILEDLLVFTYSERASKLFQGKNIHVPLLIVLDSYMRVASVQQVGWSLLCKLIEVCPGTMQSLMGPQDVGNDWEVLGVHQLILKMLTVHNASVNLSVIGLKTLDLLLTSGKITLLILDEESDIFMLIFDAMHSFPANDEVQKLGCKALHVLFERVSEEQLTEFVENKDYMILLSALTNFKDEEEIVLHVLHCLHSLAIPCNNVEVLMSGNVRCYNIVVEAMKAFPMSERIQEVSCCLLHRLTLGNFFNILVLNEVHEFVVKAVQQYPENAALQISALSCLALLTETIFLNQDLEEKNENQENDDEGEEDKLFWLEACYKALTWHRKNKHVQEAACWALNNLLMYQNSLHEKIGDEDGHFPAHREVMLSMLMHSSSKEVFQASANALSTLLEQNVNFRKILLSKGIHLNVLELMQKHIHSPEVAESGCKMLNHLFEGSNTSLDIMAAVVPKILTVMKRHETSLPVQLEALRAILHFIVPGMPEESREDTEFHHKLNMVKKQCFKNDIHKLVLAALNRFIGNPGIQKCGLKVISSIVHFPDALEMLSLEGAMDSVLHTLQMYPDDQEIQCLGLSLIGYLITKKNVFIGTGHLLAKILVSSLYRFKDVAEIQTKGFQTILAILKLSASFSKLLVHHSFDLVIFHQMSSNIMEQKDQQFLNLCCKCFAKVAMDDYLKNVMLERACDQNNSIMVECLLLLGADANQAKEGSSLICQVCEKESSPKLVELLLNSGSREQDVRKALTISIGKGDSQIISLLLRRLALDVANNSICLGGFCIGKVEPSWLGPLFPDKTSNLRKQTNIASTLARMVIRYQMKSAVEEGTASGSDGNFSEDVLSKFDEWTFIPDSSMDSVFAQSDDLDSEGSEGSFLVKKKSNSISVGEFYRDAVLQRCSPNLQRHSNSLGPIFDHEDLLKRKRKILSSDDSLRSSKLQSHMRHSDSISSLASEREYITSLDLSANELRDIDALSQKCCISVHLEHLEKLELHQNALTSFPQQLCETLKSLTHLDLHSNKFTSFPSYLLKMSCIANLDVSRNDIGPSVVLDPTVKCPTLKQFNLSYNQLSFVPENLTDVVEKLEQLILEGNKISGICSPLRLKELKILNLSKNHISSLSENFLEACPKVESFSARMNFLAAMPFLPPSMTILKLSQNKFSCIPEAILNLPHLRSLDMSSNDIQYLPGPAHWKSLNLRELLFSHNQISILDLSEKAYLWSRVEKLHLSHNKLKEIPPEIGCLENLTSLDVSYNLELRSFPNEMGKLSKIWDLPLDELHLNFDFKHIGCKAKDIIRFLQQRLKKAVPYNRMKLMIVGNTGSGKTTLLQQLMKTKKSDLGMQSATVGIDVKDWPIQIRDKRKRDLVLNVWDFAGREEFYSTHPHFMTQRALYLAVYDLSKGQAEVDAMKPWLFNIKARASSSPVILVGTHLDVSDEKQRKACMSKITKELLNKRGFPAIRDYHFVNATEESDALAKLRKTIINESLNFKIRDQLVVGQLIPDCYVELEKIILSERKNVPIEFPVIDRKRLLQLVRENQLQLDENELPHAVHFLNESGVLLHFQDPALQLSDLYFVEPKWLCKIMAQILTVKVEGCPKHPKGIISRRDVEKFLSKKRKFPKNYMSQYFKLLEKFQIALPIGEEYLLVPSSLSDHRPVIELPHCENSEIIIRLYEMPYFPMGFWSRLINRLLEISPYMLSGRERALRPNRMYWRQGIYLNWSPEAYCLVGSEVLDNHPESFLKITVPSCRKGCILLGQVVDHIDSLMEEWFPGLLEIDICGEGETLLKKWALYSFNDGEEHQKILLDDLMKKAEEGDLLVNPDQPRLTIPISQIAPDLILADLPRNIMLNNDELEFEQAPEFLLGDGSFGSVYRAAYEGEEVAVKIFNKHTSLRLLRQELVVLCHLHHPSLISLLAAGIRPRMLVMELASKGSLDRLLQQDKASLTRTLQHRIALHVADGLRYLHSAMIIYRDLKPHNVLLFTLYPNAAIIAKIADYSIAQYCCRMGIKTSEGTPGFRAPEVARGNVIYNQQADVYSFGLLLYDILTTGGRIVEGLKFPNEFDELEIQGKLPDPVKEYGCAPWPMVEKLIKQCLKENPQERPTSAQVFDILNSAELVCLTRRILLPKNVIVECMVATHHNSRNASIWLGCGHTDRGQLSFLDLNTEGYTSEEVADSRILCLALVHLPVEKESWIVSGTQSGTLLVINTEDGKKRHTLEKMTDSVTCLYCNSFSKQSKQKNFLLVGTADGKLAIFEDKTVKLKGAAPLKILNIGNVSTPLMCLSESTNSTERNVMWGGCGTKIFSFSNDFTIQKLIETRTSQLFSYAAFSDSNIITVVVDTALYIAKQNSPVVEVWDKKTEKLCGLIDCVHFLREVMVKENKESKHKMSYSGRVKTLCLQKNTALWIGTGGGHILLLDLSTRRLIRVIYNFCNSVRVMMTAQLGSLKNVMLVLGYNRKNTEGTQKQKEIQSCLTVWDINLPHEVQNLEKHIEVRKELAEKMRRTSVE
# T8 sequence (P00533 25-1210 G719C): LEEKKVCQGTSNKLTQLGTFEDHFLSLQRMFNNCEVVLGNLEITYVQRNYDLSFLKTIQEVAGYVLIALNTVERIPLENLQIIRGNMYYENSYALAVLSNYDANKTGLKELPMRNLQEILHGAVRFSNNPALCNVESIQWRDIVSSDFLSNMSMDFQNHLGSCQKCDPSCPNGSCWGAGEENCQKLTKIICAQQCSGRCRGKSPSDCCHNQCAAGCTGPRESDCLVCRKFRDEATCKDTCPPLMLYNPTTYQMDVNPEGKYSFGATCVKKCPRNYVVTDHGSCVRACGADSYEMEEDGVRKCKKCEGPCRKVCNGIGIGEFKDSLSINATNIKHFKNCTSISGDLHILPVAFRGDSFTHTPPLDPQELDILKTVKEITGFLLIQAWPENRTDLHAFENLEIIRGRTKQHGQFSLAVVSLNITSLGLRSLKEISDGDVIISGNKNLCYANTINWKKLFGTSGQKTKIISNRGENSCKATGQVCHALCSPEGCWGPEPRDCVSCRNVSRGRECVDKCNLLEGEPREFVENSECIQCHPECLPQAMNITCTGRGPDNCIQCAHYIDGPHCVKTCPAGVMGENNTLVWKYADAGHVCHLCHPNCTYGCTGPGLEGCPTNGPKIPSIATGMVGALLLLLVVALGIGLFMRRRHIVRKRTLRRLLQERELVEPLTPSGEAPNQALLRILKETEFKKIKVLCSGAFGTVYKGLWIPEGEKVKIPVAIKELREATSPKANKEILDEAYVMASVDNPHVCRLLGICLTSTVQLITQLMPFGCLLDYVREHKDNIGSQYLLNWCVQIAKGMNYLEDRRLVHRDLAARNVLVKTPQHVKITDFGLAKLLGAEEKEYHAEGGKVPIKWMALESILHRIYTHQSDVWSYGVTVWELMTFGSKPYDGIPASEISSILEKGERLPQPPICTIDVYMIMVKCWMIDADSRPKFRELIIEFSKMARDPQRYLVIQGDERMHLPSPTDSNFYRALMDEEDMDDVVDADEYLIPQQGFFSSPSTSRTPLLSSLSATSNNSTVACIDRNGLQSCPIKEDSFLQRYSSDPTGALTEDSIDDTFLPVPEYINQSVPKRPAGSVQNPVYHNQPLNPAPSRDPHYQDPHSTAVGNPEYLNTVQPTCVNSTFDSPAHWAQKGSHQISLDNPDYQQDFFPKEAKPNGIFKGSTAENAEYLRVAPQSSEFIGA
# T5 sequence (P22607 23-806 G697C): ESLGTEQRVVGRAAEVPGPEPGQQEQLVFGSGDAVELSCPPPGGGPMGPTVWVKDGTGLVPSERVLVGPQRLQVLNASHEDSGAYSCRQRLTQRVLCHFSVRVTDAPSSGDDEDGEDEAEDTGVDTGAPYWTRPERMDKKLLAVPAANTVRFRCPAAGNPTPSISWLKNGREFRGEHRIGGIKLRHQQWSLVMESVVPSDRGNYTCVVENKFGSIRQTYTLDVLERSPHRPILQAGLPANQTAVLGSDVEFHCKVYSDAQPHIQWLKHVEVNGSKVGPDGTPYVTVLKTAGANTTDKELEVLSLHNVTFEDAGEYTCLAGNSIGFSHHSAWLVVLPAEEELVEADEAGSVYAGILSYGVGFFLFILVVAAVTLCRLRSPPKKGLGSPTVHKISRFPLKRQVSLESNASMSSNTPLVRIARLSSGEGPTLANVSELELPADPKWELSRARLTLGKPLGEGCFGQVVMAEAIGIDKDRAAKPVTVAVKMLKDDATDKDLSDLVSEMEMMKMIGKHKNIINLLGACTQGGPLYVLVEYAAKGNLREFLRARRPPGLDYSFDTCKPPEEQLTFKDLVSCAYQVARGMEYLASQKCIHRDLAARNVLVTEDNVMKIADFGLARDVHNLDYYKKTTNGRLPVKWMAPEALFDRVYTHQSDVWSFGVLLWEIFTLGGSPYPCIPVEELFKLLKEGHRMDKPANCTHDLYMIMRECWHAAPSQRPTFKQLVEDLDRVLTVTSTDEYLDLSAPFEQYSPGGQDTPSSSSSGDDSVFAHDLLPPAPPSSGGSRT
# T6 sequence (Q96Q40 whole entry): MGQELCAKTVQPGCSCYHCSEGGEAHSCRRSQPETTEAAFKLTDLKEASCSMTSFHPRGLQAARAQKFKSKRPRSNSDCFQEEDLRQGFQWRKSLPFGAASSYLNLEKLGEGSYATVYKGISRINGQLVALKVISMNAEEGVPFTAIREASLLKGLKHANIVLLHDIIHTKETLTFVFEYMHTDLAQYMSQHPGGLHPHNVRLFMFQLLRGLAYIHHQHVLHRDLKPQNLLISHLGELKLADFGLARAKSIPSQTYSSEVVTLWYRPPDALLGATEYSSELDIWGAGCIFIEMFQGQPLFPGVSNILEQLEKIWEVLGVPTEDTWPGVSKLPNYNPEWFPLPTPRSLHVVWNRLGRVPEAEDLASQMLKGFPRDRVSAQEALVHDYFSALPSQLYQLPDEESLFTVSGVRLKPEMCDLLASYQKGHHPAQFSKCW
smiles,measurement,setting,value
"Cc1ccc(C2=Nc3cccnc3S(=O)(=O)c3ccccc32)cc1 [TBPT, 6-(p-tolyl)benzo[f] pyrido[2,3-b][1,4] thiazepine 11,11-dioxide]",remaining binding at 5 µM,[1]; 5 μM,68%
same,remaining binding at 10 µM,[1]; 10 μM,92%
same,remaining binding at 5 µM,KIT(V559D); 5 μM,72%
same,remaining binding at 10 µM,KIT(V559D); 10 μM,91%
same,remaining binding at 5 µM,FLT3(D835H); 5 μM,100%
same,remaining binding at 10 µM,FLT3(D835H); 10 μM,97%
same,P-gp ATPase activity,P-gp,did not induce P-gp ATPase activity
same,remaining binding at 5 µM,FGFR3(G697C); 5 μM,100%
same,remaining binding at 10 µM,FGFR3(G697C); 10 μM,82%
same,pEC50,NHFB,< 4.00
same,cell cycle arrest or apoptosis,NHFB cells,very little cell cycle arrest or apoptosis
same,remaining binding at 5 µM,PFTAIRE2; 5 μM,100%
same,remaining binding at 10 µM,PFTAIRE2; 10 μM,89%
same,remaining binding at 5 µM,RET(M918T); 5 μM,99%
same,remaining binding at 10 µM,RET(M918T); 10 μM,99%
same,remaining binding at 5 µM,EGFR(G719C); 5 μM,73%
same,remaining binding at 10 µM,EGFR(G719C); 10 μM,100%
same,PAMPA Pe,[2],1081.1±30.2 10^−6cm/s
same,microtubule organization in live cells,H460,disordered microtubule fragments
same,microtubule organization in live cells,H460TaxR,disordered microtubule fragments
same,remaining binding at 5 µM,[3]; 5 μM,78%
same,remaining binding at 10 µM,[3]; 10 μM,81%
same,remaining binding at 5 µM,LRRK2(G2019S); 5 μM,86%
same,remaining binding at 10 µM,LRRK2(G2019S); 10 μM,99%
